Measurements as given in patent publication US20070015733A1, “Aryl Phosphate Derivatives of d4T having Activity Against Resistant HIV Strains” (Parker Hughes Institute, priority 1998, published 2007).

Assays:
[1] = Alkaline chemical hydrolysis rate (NaOH/methanol, HPLC); format: physicochemical; settings: alkali hydrolysis
Procedure: All chemicals were purchased from Aldrich (Milwaukee, Wis.), with the exception of d4T which was synthesized in-house. All syntheses were performed under a nitrogen atmosphere. ^1H, ^13C, and ^31P NMR were obtained on a Varian Mercury 300 instrument at ambient temperature in CDCl3. FT-IR spectra were recorded on a Nicolet Protege 460 spectrometer. MALDI-TOF mass spectra were obtained by using a Finnigan MAT 95 system. UV spectra were recorded by using a Beckmann UV-VIS spectrophotometer (Model 3DU 74000) with a cell path length of 1 cm. HPLC purification was achieved by using a reverse-phase Lichrospher column (250×4 mm, Hewlett-Packard, RP-18, Cat # 79925) and an isocratic flow (1 ml/minute) consisting of water (70%) and acetonitrile (30%). The alkaline chemical hydrolysis was conducted at room temperature with sodium hydroxide (1 ml of 0.05N) and 3 ml of methanol solution containing 10 mg of the substrates in a Teflon lined reaction vial. […] The disappearance of the starting material was monitored as a function of time. […]
Statistical Analysis. The IC50 values were calculated from each set of triplicate wells using nonlinear regression modeling of the exponential form of the linearized equation. […] Hydrolysis rates were determined by fitting single exponential decay equations to the disappearance of the compound in alkali conditions. […]

[2] = test system: HIV-1 A17 (Y181C mutant, NNRTI-resistant); assay: p24 antigen assay, A17 strain in PBMC; format: cell-based; settings: PBMNC, p24; read-out: IC50 A17
From the text: (§1) In vitro assays of anti-HIV-1 activity.
(§2) Viruses. 20 primary clinical isolates with genotypic and/or phenotypic NRTI-resistance (isolated in the laboratory of D. Richman) and 10 clinical isolates with phenotypic stavudine (d4T) resistance (obtained through the AIDS Research and Reference Reagent Program, NIAID) were used in the current study. The HIV-1 strains HTLVIIIB (wildtype RT, NRTI-sensitive, NNRTI-sensitive), A17 (Y181 C mutant, NNRTI-resistant), A17-variant (Y181C+K103N mutant, NNRTI-resistant), and RT-MDR (M41 L, V106N, T215Y; NRTI-resistant, NNRTI-resistant) were also obtained from the AIDS Research and Reference Reagent Program, NIAID.
(§3) Antiviral susceptibility assays.

HIV-1 HTLVIIIB = assay: microbe, parasite or virus in culture; settings: read-out: IC50 HTLVIIIB; PBMNC, p24
Procedure: In vitro assays of anti-HIV-1 activity. Normal human peripheral blood mononuclear cells (PBMNC) from HIV-negative donors were cultured 72 hours in RPMI 1640 supplemented with 20% (v/v) heat-inactivated fetal bovine serum (FBS), 3% interleukin-2, 2 mM L-glutamine, 25 mM HEPES, 2 g/L NaHCO3, […], and […] prior to exposure to HIV-1 at a multiplicity of infection (MOI) of 0.1 during a 1 hour adsorption period at 37° C. in a humidified 5% CO2 atmosphere. Subsequently, cells were cultured in 96-well microtiter plates ([…]; 2×10^6 cells/mL) in the presence of various concentrations of d4T phosphoramidates and aliquots of culture supernatants were removed from the wells on the 7th day after infection for p24 antigen assays, as previously described (Uckun et al., 1998, Antimicrobial Agents and Chem., 42(2):383-388). The applied p24 enzyme immunoassay (EIA) was the unmodified kinetic assay commercially available from Coulter Corporation/Immunotech, Inc. (Westbrooke, Me.), which utilizes a murine mAb to HIV core protein coated onto microwell strips to which the antigen present in the test culture supernatant samples binds. Percent viral inhibition was calculated by comparing the p24 values from untreated infected cells (i.e., virus controls).
The anti-HIV activity of the compounds was examined by evaluating their ability to inhibit HIV replication in peripheral blood mononuclear cells using previously described procedures (Uckun et al., 1998, Antimicrobial Agents and Chem., 42(2):383-388). Percent inhibition of viral replication was calculated by comparing the p24 antigen levels from the test substance-treated infected cells with those from vehicle-treated infected cells.
Antiviral susceptibility assays. Phenotypic drug susceptibility studies of HIV-1 isolates and strains were performed by measuring the production of the p24 gag protein in peripheral blood mononuclear cells (PBMC) from seronegative healthy volunteers in the presence of increasing concentrations of the anti-HIV agent using the quantitative Coulter HIV-1 p24 antigen ezyme immunoassay (EIA) and HIV-1 p24 Antigen Kinetic Standard (Beckman Coulter), as previously described (Uckun, 1998, Antimicrobial Agents and Chemotherapy 37(4): 835-38). Informed consent was obtained from the blood donors according to DHHS guidelines using consent forms approved by the Institutional Review Board. In brief, PBMC were cultured for 72 h in RPMI 1640 medium (Gibco) supplemented with 20% (vol/vol) heat-inactivated fetal bovine serum, 5% human interleukin-2 (Zeptometrix), 2 mM L-glutamine, 25 mM HEPES, 2 g/L NaHCO3, 100 U/ml penicillin/streptomycin (Gibco), 50 μg/ml gentamicin (Gibco), and 5 μg/ml phytohemagglutinin-P (PHA-P) (Sigma) for 24-72 hours prior to exposure to HIV at a multiplicity of infection of 0.001-0.1 during a 1-h adsorbtion period at 37±1° C. in a humidified 5-7% CO2 atmosphere. Subsequently, cells were cultured in 96-well microtiter plates (100 μl/well; 2×10^6 cells/ml, triplicate wells) in the presence of the anti-HIV agents at 6-7 different concentrations ranging from 0.0001 μM to 100 μM, and 25 μL aliquots of culture supernatants were removed from the wells on day 6 after infection for p24 EIA, as previously described (Uckun, 1998, Antimicrobial Agents and Chemotherapy, 37(4):835-38). Controls included uninfected and untreated cells (background control) and infected but untreated (virus control) cells. The p24 EIA utilizes a murine monoclonal antibody to HIV core protein used to coat microwell strips to which the antigen present in the test culture supernatant samples binds. Percent inhibition of viral replication was calculated by comparing the p24 values from the test substance-treated infected cells with p24 values from untreated infected cells (i.e., virus controls). The IC50 values were determined using the Statview statistics program (SAS Institute, Inc.).

[3] = Octanol/water partition coefficient, shake flask method; format: physicochemical
Procedure: Partition Coefficients. The octanol/water partition coefficient was determined by the shake flask method. The phosphoramidate analogs were added to 2 ml of water and 2 ml of octanol in a glass vial. The mixture was shaken for 4 hours at room temperature. The two phases were carefully separated and filtered through a Millipore filter and analyzed by HPLC. The partition coefficient was calculated using the ratio of the area under the curve for octanol and water respectively.

[4] = test system: HIV-1 RT-MDR (NRTI-resistant, NNRTI-resistant); assay: p24 antigen assay, RT-MDR strain; format: cell-based; settings: p24; read-out: IC50 RTMDR
[5] = test system: HIV-1 A17-variant (Y181C+K103N mutant, NNRTI-resistant); assay: p24 antigen assay, A17-variant strain in PBMC; format: cell-based; settings: PBMNC, p24; read-out: IC50 A17V
From the text: as §1, §2, §3

Row | Structure (SMILES) | Hydrolysis Rate [1] [min⁻¹] | IC50 [2] [nM] | IC50 (HIV-1 HTLVIIIB) [nM] | Partition Coefficient (log P) [3] | IC50 [4] [nM] | IC50 [5] [nM]
1 | COC(=O)C(C)NP(=O)(OCC1C=CC(n2cc(C)c(=O)[nH]c2=O)O1)Oc1cccc(Br)c1 (centres unmarked) [Compound 9, 5′-[3-Bromophenylmethoxyalaninylphosphate]-2′,3′-didehydro-3′-deoxythymidine] | 0.0338 | 42 ± 24 | 2 ± 2 | 1.12 | 493 ± 285 | 
2 | COC(=O)C(C)NP(=O)(OCC1C=CC(n2cc(C)c(=O)[nH]c2=O)O1)Oc1ccccc1Cl (centres unmarked) [Compound 13, 5′-[2-Chlorophenylmethoxyalaninylphosphate]-2′,3′-didehydro-3′-deoxythymidine] | 0.0370 | 34 ± 20 | 3 ± 1 | 0.84 | 187 ± 108 | 15 ± 8
